Patent US20160185797A1, “ALKYNYL ALCOHOLS AND METHODS OF USE” (Genentech, Inc., priority 2013, published 2016)

Legend:
[1] = test system: p52 (NF-kB2) nuclear translocation in HeLa cells; assay: p52 (NF-kB2) nuclear translocation assay in HeLa cells, anti-lymphotoxin beta receptor antibody stimulated (non-classical NF-kB signaling), high content imaging; assay type: cell-based; conditions: Homo sapiens, 100 ng/mL anti-lymphotoxin beta receptor antibody for 5 hours, read-out: p52 HeLa Transloc Assay (IC50)
In short: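 HeLa cells in 10% FBS medium were treated with compound (0.2% DMSO final) and stimulated with 100 ng/mL anti-lymphotoxin beta receptor antibody for 5 h. Fixed cells were immunostained for p52 and imaged with DRAQ5 nuclear stain. Translocation is the nuclear to cytoplasmic intensity ratio, […].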

[2] = test system: REL-A (p65) nuclear translocation in HeLa cells; assay: REL-A (p65) nuclear translocation assay in HeLa cells, TNF-α stimulated (classical NF-kB signaling), high content imaging; assay type: cell-based; conditions: Homo sapiens, HeLa, compound 4.5 h, then 10 ng/mL TNF-α for 30 minutes, read-out: REL-A HeLa Transloc Assay (IC50)
In short: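 HeLa cells in medium with 10% fetal bovine serum were exposed to compounds (0.2% DMSO final) for 4.5 hours, then stimulated with 10 ng/mL TNF-α for 30 minutes. After fixation in 4% paraformaldehyde and permeabilization with 0.1% Triton X-100, cells were stained with 400 ng/mL anti-REL-A (p65) antibody, an Alexa488 secondary and DRAQ5. Opera imaging quantified the nuclear-to-cytoplasmic signal ratio to give IC50.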

[3] = target: T1, nuclear factor-kappa B (NF-kB)-inducing kinase (NIK) (Homo sapiens, UniProt Q99558); assay: NIK enzyme inhibition assay (Transcreener ADP fluorescence polarization, NIK ADP-FP); assay type: biochemical
T1 construct: made in house; host or cells: baculovirus-infected insect cells
T1 sequence (Q99558 whole entry): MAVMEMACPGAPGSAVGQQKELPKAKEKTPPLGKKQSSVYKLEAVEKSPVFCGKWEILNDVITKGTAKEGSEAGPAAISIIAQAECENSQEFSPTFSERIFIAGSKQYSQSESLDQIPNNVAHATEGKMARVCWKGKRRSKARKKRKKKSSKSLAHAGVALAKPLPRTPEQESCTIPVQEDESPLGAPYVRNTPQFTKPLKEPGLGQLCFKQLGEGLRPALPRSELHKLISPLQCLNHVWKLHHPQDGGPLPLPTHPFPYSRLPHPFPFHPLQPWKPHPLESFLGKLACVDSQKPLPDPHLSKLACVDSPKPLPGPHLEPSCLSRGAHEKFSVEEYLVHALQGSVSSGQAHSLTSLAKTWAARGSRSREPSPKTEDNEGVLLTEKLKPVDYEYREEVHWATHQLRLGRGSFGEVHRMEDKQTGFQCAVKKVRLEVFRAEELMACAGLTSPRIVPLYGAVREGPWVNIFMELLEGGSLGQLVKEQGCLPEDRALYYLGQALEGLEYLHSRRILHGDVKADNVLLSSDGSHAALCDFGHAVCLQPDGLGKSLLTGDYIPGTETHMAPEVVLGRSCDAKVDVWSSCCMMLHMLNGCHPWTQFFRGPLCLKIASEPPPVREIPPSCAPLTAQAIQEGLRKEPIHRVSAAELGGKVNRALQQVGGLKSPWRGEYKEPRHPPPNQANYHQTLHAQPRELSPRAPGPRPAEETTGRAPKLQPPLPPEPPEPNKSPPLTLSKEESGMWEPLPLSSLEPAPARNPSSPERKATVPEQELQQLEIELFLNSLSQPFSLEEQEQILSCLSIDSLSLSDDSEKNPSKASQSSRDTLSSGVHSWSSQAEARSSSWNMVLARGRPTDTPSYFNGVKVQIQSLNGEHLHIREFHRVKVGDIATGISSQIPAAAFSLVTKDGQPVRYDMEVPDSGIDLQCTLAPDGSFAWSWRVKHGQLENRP
Protocol: NIK Enzyme Inhibition Assay:
The ability of the nuclear factor-kappa B (NF-kB)-inducing kinase (NIK) to catalyze the hydrolysis of adenosine-5′-triphosphate (ATP) was monitored using the Transcreener ADP (adenosine-5′-diphosphate) assay (BellBrook Labs). […] Reactions were quenched by the addition of 20 mM 2,2′,2″,2′″-(ethane-1,2-diyldinitrilo)tetraacetic acid and 0.01% Brij 35. The tracer bound to the antibody was displaced by the ADP generated during the NIK reaction, which causes a decrease in fluorescence polarization that was measured by laser excitation at 633 nm with a Fluorescence Correlation Spectroscopy Plus reader (Evotec AG). Equilibrium dissociation constant (Ki) values for NIK inhibitors are calculated from plots of activity vs. inhibitor concentration using Morrison's quadratic equation that accounts for the potential of tight binding, and by also applying the conversion factor that accounted for competitive inhibition and the concentration of substrate used in the assay relative to its Michaelis constant (Km).

| Compound | IC50 [1] [nM] | IC50 [2] [nM] | Ki [3] [nM] |
| --- | --- | --- | --- |
| CN1CC[C@@](O)(C#Cc2cccc(-c3ncc(NCC4(C)COC4)c(C(N)=O)n3)c2)C1=O [Example 105, 2-[3-[2-[(3R)-3-hydroxy-1-methyl-2-oxo-pyrrolidin-3-yl]ethynyl]phenyl]-5-[(3-methyloxetan-3-yl)methylamino]pyrimidine-4-carboxamide] | 73.3 | ≥ 2000 | 0.35 |
| CN1CC[C@@](O)(C#Cc2cccc(-c3nc(OC4COC4)c(N)c(C(N)=O)n3)c2)C1=O [Example 106, 5-amino-2-[3-[2-[(3R)-3-hydroxy-1-methyl-2-oxo-pyrrolidin-3-yl]ethynyl]phenyl]-6-(oxetan-3-yloxy)pyrimidine-4-carboxamide] | 70 | ≥ 2000 | 0.25 |
| CN1CC[C@@](O)(C#Cc2cccc(-c3nc(OC4CCOCC4)c(N)c(C(N)=O)n3)c2)C1=O [Example 107, 5-amino-2-[3-[2-[(3R)-3-hydroxy-1-methyl-2-oxo-pyrrolidin-3-yl]ethynyl]phenyl]-6-tetrahydropyran-4-yloxy-pyrimidine-4-carboxamide] | 269 | ≥ 2000 | 0.4 |
| COCCOc1nc(-c2cccc(C#C[C@]3(O)CCN(C)C3=O)c2)nc(C(N)=O)c1N [Example 108, 5-amino-2-[3-[2-[(3R)-3-hydroxy-1-methyl-2-oxo-pyrrolidin-3-yl]ethynyl]phenyl]-6-(2-methoxyethoxy)pyrimidine-4-carboxamide] | 213 | ≥ 2000 | 0.65 |
| COCCNc1cnc(-c2cc(C#C[C@]3(O)CCN(C)C3=O)ccc2F)nc1C(N)=O [Example 109, 2-[2-fluoro-5-[2-[(3R)-3-hydroxy-1-methyl-2-oxo-pyrrolidin-3-yl]ethynyl]phenyl]-5-(2-methoxyethylamino) pyrimidine-4-carboxamide] | 83.1 | ≥ 2000 | 0.28 |
| CN1CC[C@@](O)(C#Cc2ccc(F)c(-c3ncc(N)c(C(N)=O)n3)c2)C1=O [Example 110, 5-amino-2-[2-fluoro-5-[2-[(3R)-3-hydroxy-1-methyl-2-oxo-pyrrolidin-3-yl]ethynyl]phenyl]pyrimidine-4-carboxamide] | 84.3 | ≥ 2000 | 0.14 |
| Cc1ccnn1-c1cc(C(N)=O)nc(-c2ccc(F)c(C#C[C@]3(O)CCN(C)C3=O)c2)n1 [Example 111, 2-[4-fluoro-3-[2-[(3R)-3-hydroxy-1-methyl-2-oxo-pyrrolidin-3-yl]ethynyl]phenyl]-6-(5-methylpyrazol-1-yl)pyrimidine-4-carboxamide] | 75.8 | ≥ 2000 | 0.37 |
| CN1CC[C@@](O)(C#Cc2cccc(-c3nc(C(N)=O)c(N)n4ccnc34)c2)C1=O [Example 112, 5-amino-8-[3-[2-[(3R)-3-hydroxy-1-methyl-2-oxo-pyrrolidin-3-yl]ethynyl]phenyl]imidazo[1,2-a] pyrazine-6-carboxamide] | 88.8 | ≥ 20000 | 0.05 |
| CN1CC[C@@](O)(C#Cc2cccc(-c3nc(C(N)=O)cn4c(C(F)(F)F)cnc34)c2)C1=O [Example 113, 8-[3-[2-[(3R)-3-hydroxy-1-methyl-2-oxo-pyrrolidin-3-yl]ethynyl]phenyl]-3-(trifluoromethyl)imidazo [1,2-a]pyrazine-6-carboxamide] | 212 | ≥ 2000 | 2.12 |
| CCn1ncc2c(-c3cccc(C#C[C@]4(O)CCN(C)C4=O)c3)nc(C(N)=O)cc21 [Example 114, 1-ethyl-4-[3-[2-[(3R)-3-hydroxy-1-methyl-2-oxo-pyrrolidin-3-yl]ethynyl]phenyl]pyrazolo[4,3-c] pyridine-6-carboxamide] | 211 | ≥ 2000 | 1.48 |
| CN1CC[C@@](O)(C#Cc2cc(-c3nc(C(N)=O)c(N)cc3F)ccc2F)C1=O [Example 116, 3-amino-5-fluoro-6-[4-fluoro-3-[2-[(3R)-3-hydroxy-1-methyl-2-oxo-pyrrolidin-3-yl]ethynyl]phenyl]pyridine-2-carboxamide] | 11.6 | 12400 | 0.05 |
| CN1CC[C@@](O)(C#Cc2ccc(F)c(-c3cnc(N)c(C(N)=O)n3)c2)C1=O [Example 117, 3-amino-6-[2-fluoro-5-[2-[(3R)-3-hydroxy-1-methyl-2-oxo-pyrrolidin-3-yl]ethynyl]phenyl] pyrazine-2-carboxamide] | 12.5 | ≥ 20000 | 0.05 |
| CN1CC[C@@](O)(C#Cc2cc(-c3ccc(N)c(C(N)=O)n3)c(F)cc2F)C1=O [Example 118, 3-amino-6-[2,4-difluoro-5-[2-[(3R)-3-hydroxy-1-methyl-2-oxo-pyrrolidin-3-yl]ethynyl]phenyl]pyridine-2-carboxamide] | 19 | ≥ 2000 | 0.05 |
| CCNc1ccc(-c2ccc(C#N)c(C#C[C@]3(O)CCN(C)C3=O)c2)nc1C(N)=O [Example 119, 6-[4-cyano-3-[2-[(3R)-3-hydroxy-1-methyl-2-oxo-pyrrolidin-3-yl]ethynyl]phenyl]-3-(ethylamino) pyridine-2-carboxamide] | 108 | ≥ 2000 | 0.1 |
| CN1CC[C@@](O)(C#Cc2cccc(-c3nc(C(N)=O)c(NCc4ccon4)cc3F)c2)C1=O [Example 120, 5-fluoro-6-[3-[2-[(3R)-3-hydroxy-1-methyl-2-oxo-pyrrolidin-3-yl]ethynyl]phenyl]-3-(isoxazol-3-ylmethylamino)pyridine-2-carboxamide] | 26.6 | ≥ 2000 | 0.33 |
| CN1CC[C@@](O)(C#Cc2cccc(-c3cc(OC4COC4)cc(C(N)=O)n3)c2)C1=O [Example 122, 6-[3-[2-[(3R)-3-hydroxy-1-methyl-2-oxo-pyrrolidin-3-yl]ethynyl]phenyl]-4-(oxetan-3-yloxy) pyridine-2-carboxamide] | 226 | ≥ 2000 | 0.81 |
| Cc1cc(C(N)=O)nc(-c2cccc(C#C[C@]3(O)CCN(C)C3=O)c2)c1 [Example 123, 6-[3-[2-[(3R)-3-hydroxy-1-methyl-2-oxo-pyrrolidin-3-yl]ethynyl]phenyl]-4-methyl-pyridine-2-carboxamide] | 79.4 | ≥ 2000 | 0.09 |
| CN1CC[C@@](O)(C#Cc2cccc(-c3cc(N)cc(C(N)=O)n3)c2)C1=O [Example 124, 4-amino-6-[3-[2-[(3R)-3-hydroxy-1-methyl-2-oxo-pyrrolidin-3-yl]ethynyl]phenyl]pyridine-2-carboxamide] | 300 | ≥ 2000 | 0.05 |
| Cc1ccnn1-c1cc(C(N)=O)nc(-c2cccc(C#C[C@]3(O)CCN(C)C3=O)c2)c1 [Example 125, 6-[3-[2-[(3R)-3-hydroxy-1-methyl-2-oxo-pyrrolidin-3-yl]ethynyl]phenyl]-4-(5-methylpyrazol-1-yl) pyridine-2-carboxamide] | 84.2 | ≥ 2000 | 1.29 |
| Cc1ccc(-c2cc(C(N)=O)nc(-c3cccc(C#C[C@]4(O)CCN(C)C4=O)c3)c2)cn1 [Example 126, 6-[3-[2-[(3R)-3-hydroxy-1-methyl-2-oxo-pyrrolidin-3-yl]ethynyl]phenyl]-4-(6-methyl-3-pyridyl)pyridine-2-carboxamide] | 122 | ≥ 2000 | 0.05 |
| CN1CC[C@@](O)(C#Cc2cccc(-c3cc(-c4cnccn4)cc(C(N)=O)n3)c2)C1=O [Example 127, 6-[3-[2-[(3R)-3-hydroxy-1-methyl-2-oxo-pyrrolidin-3-yl]ethynyl]phenyl]-4-pyrazin-2-yl-pyridine-2-carboxamide] | 183 | ≥ 2000 | 0.08 |
| COCCNc1ccc(-c2cccc(C#C[C@]3(O)CCN(C)C3=O)c2)nc1C(N)=O [Example 128, 6-[3-[2-[(3R)-3-hydroxy-1-methyl-2-oxo-pyrrolidin-3-yl]ethynyl]phenyl]-3-(2-methoxyethylamino) pyridine-2-carboxamide] | 27.2 | ≥ 2000 | 0.05 |
| CN1CC[C@@](O)(C#Cc2cccc(-c3cc(-c4ncccn4)cc(C(N)=O)n3)c2)C1=O [Example 129, 6-[3-[2-[(3R)-3-hydroxy-1-methyl-2-oxo-pyrrolidin-3-yl]ethynyl]phenyl]-4-pyrimidin-2-yl-pyridine-2-carboxamide] | 155 | ≥ 2000 | 0.3 |
| Cc1nnc([C@](C)(O)C#Cc2cccc(-c3nc(C(N)=O)c(N)cc3F)c2)o1 [Example 130, 3-amino-5-fluoro-6-[3-[(3R)-3-hydroxy-3-(5-methyl-1,3,4-oxadiazol-2-yl)but-1-ynyl]phenyl]pyridine-2-carboxamide] | ≥ 2000 | ≥ 2000 | 9.05 |
| CN1CCC[C@@](O)(C#Cc2cccc(-c3nc(C(N)=O)c(N)cc3F)c2)C1=O [Example 131, 3-amino-5-fluoro-6-[3-[2-[(3R)-3-hydroxy-1-methyl-2-oxo-3-piperidyl]ethynyl]phenyl]pyridine-2-carboxamide] | 142 | ≥ 2000 | 1.06 |
| Cc1nc([C@](C)(O)C#Cc2cccc(-c3nc(C(N)=O)c(N)cc3F)c2)no1 [Example 132, 3-amino-5-fluoro-6-[3-[(3R)-3-hydroxy-3-(5-methyl-1,2,4-oxadiazol-3-yl)but-1-ynyl]phenyl]pyridine-2-carboxamide] | ≥ 2000 | ≥ 2000 | 8.75 |
